Experimental data as given in ChEMBL document CHEMBL4715777, “Synthesis and topoisomerases inhibitory activity of heteroaromatic chalcones” (Bioorg Med Chem, 2016).
Counter-ions that a name gives are not always drawn.

Columns and labels:
[1] = target: T1, DNA topoisomerase 1 (Homo sapiens) (UniProt P11387); test: (§1) Inhibition of recombinant human DNA topoisomerase 1 expressed in baculovirus expression system assessed as decrease in relaxation of supercoiled pBR322 plasmid DNA at 100 uM using supercoiled pBR322 plasmid DNA as substrate incubated for 30 mins by ethidium bromide staining-based UV imaging analysis relative to control
T1 sequence (whole entry): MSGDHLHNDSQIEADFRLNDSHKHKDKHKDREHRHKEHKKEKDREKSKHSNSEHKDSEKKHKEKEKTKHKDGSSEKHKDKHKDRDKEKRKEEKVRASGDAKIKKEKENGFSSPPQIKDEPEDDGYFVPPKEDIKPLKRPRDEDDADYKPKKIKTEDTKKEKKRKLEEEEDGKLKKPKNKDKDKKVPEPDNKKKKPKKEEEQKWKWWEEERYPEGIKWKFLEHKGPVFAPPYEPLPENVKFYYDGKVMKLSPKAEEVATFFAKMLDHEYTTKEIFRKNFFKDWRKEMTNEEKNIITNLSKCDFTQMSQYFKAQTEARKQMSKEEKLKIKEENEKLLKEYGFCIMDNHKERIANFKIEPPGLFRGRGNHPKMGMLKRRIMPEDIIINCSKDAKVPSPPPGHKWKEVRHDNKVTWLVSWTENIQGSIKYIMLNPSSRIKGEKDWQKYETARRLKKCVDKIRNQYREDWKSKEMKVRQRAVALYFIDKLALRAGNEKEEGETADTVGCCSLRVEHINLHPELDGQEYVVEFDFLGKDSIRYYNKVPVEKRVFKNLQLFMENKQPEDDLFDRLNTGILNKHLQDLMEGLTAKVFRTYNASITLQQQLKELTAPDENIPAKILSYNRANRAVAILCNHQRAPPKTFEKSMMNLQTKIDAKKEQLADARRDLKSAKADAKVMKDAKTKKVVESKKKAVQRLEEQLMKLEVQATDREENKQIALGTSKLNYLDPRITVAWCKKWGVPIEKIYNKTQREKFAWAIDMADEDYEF

MDA-MB-231 = test: Cytotoxicity against human MDA-MB-231 cells assessed as cell growth inhibition measured after 2 days by cell counting kit-8 assay; assay type: functional, cell-based; conditions: MDA-MB-231, 48 h
MDA-MB-468 = test: Cytotoxicity against human MDA-MB-468 cells assessed as cell growth inhibition measured after 2 days by cell counting kit-8 assay; assay type: functional, cell-based; conditions: MDA-MB-468, 48 h
T47D = test: Cytotoxicity against human T47D cells assessed as cell growth inhibition measured after 2 days by cell counting kit-8 assay; assay type: functional, cell-based; conditions: 48 h
[2] = target: T1, DNA topoisomerase 1 (Homo sapiens); test: as §1, with “20” for “100”
[3] = target: DNA topoisomerase 2-alpha (Homo sapiens) (UniProt P11388); test: Inhibition of human DNA topoisomerase 2alpha assessed as decrease in relaxation of supercoiled pBR322 plasmid DNA at 100 uM using supercoiled pBR322 plasmid DNA as substrate incubated for 30 mins in presence of ATP by ethidium bromide staining-based UV imaging analysis relative to control
Sequence of DNA topoisomerase 2-alpha (Homo sapiens) (P11388 whole entry): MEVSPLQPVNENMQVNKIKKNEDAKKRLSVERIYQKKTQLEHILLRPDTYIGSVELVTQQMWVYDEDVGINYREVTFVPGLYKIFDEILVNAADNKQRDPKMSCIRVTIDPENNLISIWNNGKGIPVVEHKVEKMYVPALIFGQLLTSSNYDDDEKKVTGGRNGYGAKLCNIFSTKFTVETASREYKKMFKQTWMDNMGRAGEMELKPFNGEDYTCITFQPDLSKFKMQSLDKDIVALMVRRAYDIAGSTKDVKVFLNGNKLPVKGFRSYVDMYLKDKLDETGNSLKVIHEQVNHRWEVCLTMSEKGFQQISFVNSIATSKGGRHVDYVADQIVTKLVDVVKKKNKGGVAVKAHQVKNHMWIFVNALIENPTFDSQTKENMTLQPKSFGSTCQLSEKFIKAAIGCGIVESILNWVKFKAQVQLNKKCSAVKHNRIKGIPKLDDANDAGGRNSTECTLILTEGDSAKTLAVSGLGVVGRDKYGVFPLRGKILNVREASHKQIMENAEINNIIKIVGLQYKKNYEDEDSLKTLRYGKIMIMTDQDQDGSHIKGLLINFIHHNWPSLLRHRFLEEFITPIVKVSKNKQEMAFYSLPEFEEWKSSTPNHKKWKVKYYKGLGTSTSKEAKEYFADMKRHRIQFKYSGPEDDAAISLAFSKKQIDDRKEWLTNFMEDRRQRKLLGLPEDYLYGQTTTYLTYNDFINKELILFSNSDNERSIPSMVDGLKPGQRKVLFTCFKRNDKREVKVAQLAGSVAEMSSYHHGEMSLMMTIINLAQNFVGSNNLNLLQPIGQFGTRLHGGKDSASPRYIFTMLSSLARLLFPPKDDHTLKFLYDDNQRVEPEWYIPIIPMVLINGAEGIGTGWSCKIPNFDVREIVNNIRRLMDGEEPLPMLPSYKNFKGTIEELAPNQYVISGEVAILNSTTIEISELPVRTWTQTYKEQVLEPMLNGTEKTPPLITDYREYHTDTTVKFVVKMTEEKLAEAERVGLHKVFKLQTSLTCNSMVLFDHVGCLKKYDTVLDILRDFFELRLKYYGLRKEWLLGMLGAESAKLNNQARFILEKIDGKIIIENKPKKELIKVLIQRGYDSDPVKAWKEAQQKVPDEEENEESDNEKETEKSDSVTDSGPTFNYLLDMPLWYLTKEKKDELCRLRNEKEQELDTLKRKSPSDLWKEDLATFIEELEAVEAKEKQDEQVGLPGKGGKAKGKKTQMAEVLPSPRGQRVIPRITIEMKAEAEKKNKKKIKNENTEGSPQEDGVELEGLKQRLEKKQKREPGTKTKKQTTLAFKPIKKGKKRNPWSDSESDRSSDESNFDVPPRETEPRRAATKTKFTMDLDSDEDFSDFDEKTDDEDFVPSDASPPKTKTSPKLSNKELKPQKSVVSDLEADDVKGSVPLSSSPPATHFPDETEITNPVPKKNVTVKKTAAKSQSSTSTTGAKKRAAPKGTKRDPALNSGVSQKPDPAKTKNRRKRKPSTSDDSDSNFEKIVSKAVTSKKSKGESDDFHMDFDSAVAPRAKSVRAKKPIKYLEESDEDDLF

[4] = target: DNA topoisomerase 2-alpha (Homo sapiens) (UniProt P11388); test: Inhibition of human DNA topoisomerase 2alpha assessed as decrease in relaxation of supercoiled pBR322 plasmid DNA at 20 uM using supercoiled pBR322 plasmid DNA as substrate incubated for 30 mins in presence of ATP by ethidium bromide staining-based UV imaging analysis relative to control

## COc1cc([C@@H]2c3cc4c(cc3[C@@H](O[C@@H]3O[C@@H]5CO[C@@H](C)O[C@H]5[C@H](O)[C@H]3O)[C@H]3COC(=O)[C@H]23)OCO4)cc(OC)c1O [ETOPOSIDE]
[1]
  inhibition: < 30%
MDA-MB-231
  IC50: 9.13 µM
MDA-MB-468
  IC50: 0.86 µM
T47D
  IC50: 1.96 µM

## O=C(/C=C/c1ccco1)c1ccc(OCC2CO2)cc1 (centres undefined)
[2]
  inhibition: 0%
[1]
  inhibition: 36.8%
[3]
  inhibition: 6.6%
MDA-MB-231
  IC50: 47.1 µM
MDA-MB-468
  IC50: 48.9 µM
T47D
  IC50: 17.7 µM

## O=C(/C=C/c1cccs1)c1ccccc1OCC1CO1 (centres undefined)
[1]
  inhibition: 11.1%
[3]
  inhibition: 0.7%
MDA-MB-231
  IC50: 17.9 µM
MDA-MB-468
  IC50: 7.71 µM
T47D
  IC50: 17.7 µM

## O=C(/C=C/c1cccs1)c1ccc(OCC2CO2)cc1 (centres undefined)
[1]
  inhibition: 0%
[3]
  inhibition: 0.6%
MDA-MB-231
  IC50: 28.3 µM
MDA-MB-468
  IC50: 17.2 µM
T47D
  IC50: 17.8 µM

## O=C(/C=C/c1ccoc1)c1ccc(OCC2CS2)cc1 (centres undefined)
[1]
  inhibition: 0%
[3]
  inhibition: 0%
MDA-MB-231
  IC50: 19.3 µM
MDA-MB-468
  IC50: 5.3 µM
T47D
  IC50: 12.3 µM

## O=C(/C=C/c1ccco1)c1cccc(OCC2CS2)c1 (centres undefined)
[2]
  inhibition: 1.3%
[1]
  inhibition: 75.4%
[3]
  inhibition: 90.4%
[4]
  inhibition: 29.8%
MDA-MB-231
  IC50: 28.9 µM
MDA-MB-468
  IC50: 7.23 µM
T47D
  IC50: 10.4 µM

## O=C(/C=C/c1ccsc1)c1ccc(OCC2CO2)cc1 (centres undefined)
[2]
  inhibition: 0%
[1]
  inhibition: 46.3%
[3]
  inhibition: 2.7%
MDA-MB-231
  IC50: 11.1 µM
MDA-MB-468
  IC50: 10.8 µM
T47D
  IC50: 10.6 µM

## CC[C@@]1(O)C(=O)OCc2c1cc1n(c2=O)Cc2cc3ccccc3nc2-1 [CAMPTOTHECIN]
[3]
  inhibition: < 30%
MDA-MB-231
  IC50: 8.83 µM
MDA-MB-468
  IC50: 1.71 µM
T47D
  IC50: 3.67 µM

## O=C(/C=C/c1ccc(OCC2CO2)cc1)c1ccco1 (centres undefined)
[1]
  inhibition: 0%
[3]
  inhibition: 0%
MDA-MB-231
  IC50: 22.2 µM
MDA-MB-468
  IC50: 17.3 µM
T47D
  IC50: 11.2 µM

## O=C(/C=C/c1cccs1)c1ccc(OCC2CS2)cc1 (centres undefined)
[1]
  inhibition: 14.5%
[3]
  inhibition: 0%
MDA-MB-231
  IC50: 16.7 µM
MDA-MB-468
  IC50: 5.27 µM
T47D
  IC50: 11.1 µM

## O=C(/C=C/c1ccco1)c1ccc(OCC2CS2)cc1 (centres undefined)
[2]
  inhibition: 0%
[1]
  inhibition: 63.8%
[3]
  inhibition: 94.5%
[4]
  inhibition: 24.7%
MDA-MB-231
  IC50: 18 µM
MDA-MB-468
  IC50: 4.32 µM
T47D
  IC50: 9.44 µM

## O=C(/C=C/c1cccs1)c1cccc(OCC2CO2)c1 (centres undefined)
[1]
  inhibition: 2.7%
[3]
  inhibition: 3.9%
MDA-MB-231
  IC50: 15.4 µM
MDA-MB-468
  IC50: 16.3 µM
T47D
  IC50: 14.6 µM

## O=C(/C=C/c1cccs1)c1cccc(OCC2CS2)c1 (centres undefined)
[1]
  inhibition: 0%
[3]
  inhibition: 3.7%
MDA-MB-231
  IC50: 19.9 µM
MDA-MB-468
  IC50: 6.98 µM
T47D
  IC50: 10.6 µM

## O=C(/C=C/c1ccsc1)c1ccc(OCC2CS2)cc1 (centres undefined)
[2]
  inhibition: 0%
[1]
  inhibition: 100%
[3]
  inhibition: 0%
MDA-MB-231
  IC50: 50 µM
MDA-MB-468
  IC50: 23.8 µM
T47D
  IC50: 9.32 µM

## O=C(/C=C/c1ccc(OCC2CO2)cc1)c1cccs1 (centres undefined)
[2]
  inhibition: 15.6%
[1]
  inhibition: 34.1%
[3]
  inhibition: 0%
MDA-MB-231
  IC50: 13.9 µM
MDA-MB-468
  IC50: 6.3 µM
T47D
  IC50: 10.6 µM

## O=C(/C=C/c1cccs1)c1ccccc1OCC1CS1 (centres undefined)
[1]
  inhibition: 0.4%
[3]
  inhibition: 0.4%
MDA-MB-231
  IC50: 17.9 µM
MDA-MB-468
  IC50: 4.35 µM
T47D
  IC50: 7.01 µM

## O=C(/C=C/c1ccco1)c1ccccc1OCC1CO1 (centres undefined)
[2]
  inhibition: 24.2%
[1]
  inhibition: 36.8%
[3]
  inhibition: 82.3%
[4]
  inhibition: 0%
MDA-MB-231
  IC50: 28.7 µM
MDA-MB-468
  IC50: 48.3 µM
T47D
  IC50: 19.4 µM

## O=C(/C=C/c1ccc(OCC2CS2)cc1)c1cccs1 (centres undefined)
[1]
  inhibition: 5.1%
[3]
  inhibition: 0%
MDA-MB-231
  IC50: 17.3 µM
MDA-MB-468
  IC50: 6.14 µM
T47D
  IC50: 3.83 µM

## O=C(/C=C/c1ccc(OCC(O)CCl)cc1)c1cccs1 (centres undefined)
[1]
  inhibition: 4.3%
[3]
  inhibition: 3.7%
MDA-MB-231
  IC50: 30.3 µM
MDA-MB-468
  IC50: 7.75 µM
T47D
  IC50: 13 µM

## O=C(/C=C/c1ccc(OCC(O)CCl)cc1)c1ccco1 (centres undefined)
[1]
  inhibition: 1.8%
[3]
  inhibition: 0%
MDA-MB-231
  IC50: > 50 µM
MDA-MB-468
  IC50: 9.53 µM
T47D
  IC50: > 50 µM

## O=C(/C=C/c1ccoc1)c1ccc(OCC2CO2)cc1 (centres undefined)
[1]
  inhibition: 5.6%
[3]
  inhibition: 0.3%
MDA-MB-231
  IC50: 26.2 µM
MDA-MB-468
  IC50: 16.5 µM
T47D
  IC50: 20.6 µM

## O=C(/C=C/c1ccc(OCC2CS2)cc1)c1ccco1 (centres undefined)
[1]
  inhibition: 3.3%
[3]
  inhibition: 0%
MDA-MB-231
  IC50: 24.1 µM
MDA-MB-468
  IC50: 8.35 µM
T47D
  IC50: 10.6 µM

## O=C(/C=C/c1ccco1)c1cccc(OCC2CO2)c1 (centres undefined)
[1]
  inhibition: 28.5%
[3]
  inhibition: 67.6%
[4]
  inhibition: 0.3%
MDA-MB-231
  IC50: 27.8 µM
MDA-MB-468
  IC50: 37.3 µM
T47D
  IC50: 22.7 µM

## COc1cccc2c1C(=O)c1c(O)c3c(c(O)c1C2=O)C[C@@](O)(C(=O)CO)C[C@@H]3O[C@H]1C[C@H](N)[C@H](O)[C@H](C)O1 [DOXORUBICIN HYDROCHLORIDE]
MDA-MB-231
  IC50: 3.6 µM
MDA-MB-468
  IC50: 2.15 µM
T47D
  IC50: 2.18 µM

## O=C(/C=C/c1ccco1)c1ccccc1OCC1CS1 (centres undefined)
[2]
  inhibition: 6.4%
[1]
  inhibition: 61.2%
[3]
  inhibition: 95.4%
[4]
  inhibition: 30.6%
MDA-MB-231
  IC50: 32.2 µM
MDA-MB-468
  IC50: 8.26 µM
T47D
  IC50: 6.61 µM
